Reference: ChEMBL document CHEMBL1201862, “PubChem BioAssay data set” (2004)
Blank lines part the entries; values can stand above or below the compound they belong to. Active and inactive are the calls of the source.

Assays:
Leucine aminopeptidase = target: T1, Leucine aminopeptidase (Plasmodium falciparum 3D7, UniProt Q8IL11); experiment: P. falciparum M17LAP inhibitors, primary screen, biochemical, fluorogenic H-Leu-NHMec substrate, 1536-well (AID 1619); assay type: functional
T1 sequence (Q8IL11 whole entry): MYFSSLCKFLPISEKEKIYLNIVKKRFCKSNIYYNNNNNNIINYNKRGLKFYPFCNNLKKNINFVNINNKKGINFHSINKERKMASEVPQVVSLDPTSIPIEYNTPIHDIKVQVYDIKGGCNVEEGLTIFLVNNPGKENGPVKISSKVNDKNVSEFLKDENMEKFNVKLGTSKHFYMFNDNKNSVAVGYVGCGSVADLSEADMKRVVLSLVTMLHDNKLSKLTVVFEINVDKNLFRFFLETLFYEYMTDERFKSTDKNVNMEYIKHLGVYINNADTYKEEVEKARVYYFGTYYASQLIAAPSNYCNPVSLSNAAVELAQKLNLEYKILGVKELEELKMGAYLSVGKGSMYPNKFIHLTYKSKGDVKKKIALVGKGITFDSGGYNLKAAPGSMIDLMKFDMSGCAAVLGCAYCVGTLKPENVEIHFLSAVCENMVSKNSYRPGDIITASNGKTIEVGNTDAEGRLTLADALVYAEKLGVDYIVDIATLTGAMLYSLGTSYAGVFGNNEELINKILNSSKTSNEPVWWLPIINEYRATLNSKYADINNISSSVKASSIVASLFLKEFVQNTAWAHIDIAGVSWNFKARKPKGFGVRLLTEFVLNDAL

[1] = growth suppression of PTEN-null colon cells, dose response, cell-based, HCT116 PTEN knockout (AID 1047); assay type: functional;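 also: HCT116 colon tumor cells with PTEN knocked out; cells exposed to compound for 60 hours before readout; potency for loss of cell viability measured by luminescence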
Cytochrome P450 2D6 = Cytochrome P450 2D6 (Homo sapiens, UniProt P10635);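 also: CYP2D6 member of a cytochrome P450 panel assay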
[2] = growth suppression of beta-catenin-knockout colon cells, dose response, cell-based, HCT116, human colon tumor (AID 1045); assay type: functional;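 also: HCT116 colon tumor cells with beta catenin knocked out; cells exposed to compound for 60 hours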
[3] = target: FAD-linked sulfhydryl oxidase ALR (Homo sapiens, UniProt P55789); experiment: inhibitors of human ALR sulfhydryl oxidase, dose response, biochemical, H2O2 detection, luminescence, cherry-pick (AID 493248)
Large T antigen = Large T antigen (Simian virus 40, UniProt P03070); assay type: functional, Betapolyomavirus macacae;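 also: Confirmatory-stage PubChem screen for compounds that inhibit SV40 T antigen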
Cytochrome P450 2C19 = Cytochrome P450 2C19 (Homo sapiens, UniProt P33261); experiment: Cytochrome panel assay with activity outcomes. Panel member name: p450-cyp2c19 Compounds with AC50 equal or less than 10 uM are considered active; assay type: functional; conditions: read-out: AC50
H9c2 = experiment: cells; assay type: functional, cell-based; conditions: Rattus norvegicus, H9c2, Myocardium;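 also: confirmatory concentration-response retest of ultra-high-throughput screening hits for modulation of myocardial damage; cell death induced by hydrogen peroxide oxidative stress; compound pretreatment for 60 min then peroxide exposure for 2 h; potency is for protecting the cells against peroxide damage rather than for killing them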
[4] = target: Glucose-6-phosphate 1-dehydrogenase (Homo sapiens, UniProt P11413); experiment: human G6PD enzyme inhibitors, dose response, selectivity assay for P. falciparum G6PD inhibitor project, biochemical, fluorescence (AID 504792); assay type: functional
[5] = test system: Streptococcus sp. 'group A'; experiment: growth inhibition of control SK(-) GAS strain, dose response, counter-screen for streptokinase expression inhibitor project, luminescence, kanamycin, BacTiterGlo, confirmation (AID 1900); assay type: functional, organism-based
Streptococcus = experiment: Group A Streptococcus viability loss, dose response, counter-screen for streptokinase expression inhibitor project, luminescence, BacTiterGlo (AID 1915); assay type: functional, organism-based;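 also: potency for reduction of bacterial viability or growth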
Aminopeptidase N = target: T2, Aminopeptidase N (Plasmodium falciparum FcB1/Columbia, UniProt O96935); experiment: P. falciparum M1AAP inhibitors, biochemical, fluorogenic H-Leu-NHMec substrate, 1536-well (AID 1445); set-up: species or system Plasmodium falciparum 3D7, 3D7
T2 sequence (O96935 whole entry): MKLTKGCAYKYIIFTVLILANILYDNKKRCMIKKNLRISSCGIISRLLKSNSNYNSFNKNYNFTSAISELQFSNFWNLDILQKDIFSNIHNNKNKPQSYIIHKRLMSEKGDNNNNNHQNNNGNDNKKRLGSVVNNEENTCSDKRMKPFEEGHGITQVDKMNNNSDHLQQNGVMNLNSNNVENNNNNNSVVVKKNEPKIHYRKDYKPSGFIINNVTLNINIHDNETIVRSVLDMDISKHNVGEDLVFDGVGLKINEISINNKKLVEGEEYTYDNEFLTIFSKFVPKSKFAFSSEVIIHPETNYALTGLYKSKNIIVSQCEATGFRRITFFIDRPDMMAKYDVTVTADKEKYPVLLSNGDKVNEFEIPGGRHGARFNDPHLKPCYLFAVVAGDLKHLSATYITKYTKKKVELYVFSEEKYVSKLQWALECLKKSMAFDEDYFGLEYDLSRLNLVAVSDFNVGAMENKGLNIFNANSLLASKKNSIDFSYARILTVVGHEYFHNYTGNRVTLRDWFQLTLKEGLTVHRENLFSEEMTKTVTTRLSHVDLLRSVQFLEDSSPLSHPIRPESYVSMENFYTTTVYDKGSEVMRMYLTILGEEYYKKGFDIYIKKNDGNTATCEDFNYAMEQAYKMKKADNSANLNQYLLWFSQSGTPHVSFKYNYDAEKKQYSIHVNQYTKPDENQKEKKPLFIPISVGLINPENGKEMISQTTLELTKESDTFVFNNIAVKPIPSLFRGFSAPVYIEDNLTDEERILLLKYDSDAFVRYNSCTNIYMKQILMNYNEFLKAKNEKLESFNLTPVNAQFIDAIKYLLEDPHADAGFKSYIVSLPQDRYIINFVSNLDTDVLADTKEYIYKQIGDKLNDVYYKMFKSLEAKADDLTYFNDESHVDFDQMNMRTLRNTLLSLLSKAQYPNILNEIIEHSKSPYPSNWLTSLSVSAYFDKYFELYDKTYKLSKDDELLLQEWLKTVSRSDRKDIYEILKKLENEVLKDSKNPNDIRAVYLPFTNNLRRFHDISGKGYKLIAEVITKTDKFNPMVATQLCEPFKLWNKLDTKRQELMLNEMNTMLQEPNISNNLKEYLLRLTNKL

[6] = target: T3, Heat shock factor protein 1 (Mus musculus, UniProt P38532); experiment: inhibition of MG132-induced HSE-luciferase signal, confirmation, cell-based, NIH3T3, luminescence, dose retest (AID 2382); assay type: functional;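 also: NIH3T3 fibroblasts with HSF1-driven luciferase reporter stressed by proteasome inhibitor MG132; luminescence from HSF1-driven luciferase expression after 8 hours of MG132 stress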
T3 sequence (P38532 whole entry): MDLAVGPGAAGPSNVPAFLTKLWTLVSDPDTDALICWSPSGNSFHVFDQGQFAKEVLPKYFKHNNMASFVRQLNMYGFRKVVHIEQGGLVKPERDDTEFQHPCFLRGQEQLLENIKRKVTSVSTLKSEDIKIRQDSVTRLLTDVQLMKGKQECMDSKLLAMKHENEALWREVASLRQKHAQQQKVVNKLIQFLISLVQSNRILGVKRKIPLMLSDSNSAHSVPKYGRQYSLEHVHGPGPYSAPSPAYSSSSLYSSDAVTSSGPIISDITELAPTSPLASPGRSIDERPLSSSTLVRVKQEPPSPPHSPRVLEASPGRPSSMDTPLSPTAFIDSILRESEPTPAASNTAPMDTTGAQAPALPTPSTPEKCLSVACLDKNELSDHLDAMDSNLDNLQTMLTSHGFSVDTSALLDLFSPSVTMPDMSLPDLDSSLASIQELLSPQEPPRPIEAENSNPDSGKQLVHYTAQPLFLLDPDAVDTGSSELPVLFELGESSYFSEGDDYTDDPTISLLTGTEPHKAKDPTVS

[7] = target: T3, Heat shock factor protein 1; experiment: HSF1 potentiators in luciferase reporter cells, confirmation, cell-based, NIH3T3, luminescence, dose retest (AID 435004); assay type: functional;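 also: stress induced by proteasome inhibitor MG132 added 30 min after compound; luciferase reporter driven by HSF1 response element in NIH3T3 cells; actives raise luminescence as potentiators of the MG132 stress response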
[8] = target: T4, Polyadenylate-binding protein 1 (Homo sapiens, UniProt P11940); experiment: PABP1 MLLE–PAM2 binding inhibitor potency, dose response, biochemical, fluorescence polarization, FITC-PAM2 peptide (AID 602259); assay type: functional; conditions: read-out: IC50_Mean
[9] = target: T4, Polyadenylate-binding protein 1; experiment: PABP1 MLLE–PAM2 interaction inhibitors, dose response, miRNA deadenylation inhibitor project, biochemical, fluorescence polarization, Cy5-PAM2 peptide, secondary (AID 602260); assay type: functional; conditions: read-out: IC50_Mean

Sequence of Glucose-6-phosphate 1-dehydrogenase (P11413 whole entry): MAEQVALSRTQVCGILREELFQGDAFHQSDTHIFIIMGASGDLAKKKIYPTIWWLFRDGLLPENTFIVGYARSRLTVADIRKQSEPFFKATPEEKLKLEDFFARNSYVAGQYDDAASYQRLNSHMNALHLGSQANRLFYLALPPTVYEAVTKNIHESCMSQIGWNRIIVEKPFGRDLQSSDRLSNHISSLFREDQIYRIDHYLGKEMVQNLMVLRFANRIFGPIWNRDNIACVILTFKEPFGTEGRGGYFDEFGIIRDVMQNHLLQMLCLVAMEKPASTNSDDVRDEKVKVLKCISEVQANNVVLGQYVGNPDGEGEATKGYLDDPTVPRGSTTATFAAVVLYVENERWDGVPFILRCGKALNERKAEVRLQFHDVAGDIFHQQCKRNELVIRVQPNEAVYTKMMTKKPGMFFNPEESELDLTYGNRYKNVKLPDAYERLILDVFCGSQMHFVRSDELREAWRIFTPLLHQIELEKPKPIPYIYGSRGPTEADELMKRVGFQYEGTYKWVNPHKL
Sequence of FAD-linked sulfhydryl oxidase ALR (P55789 whole entry): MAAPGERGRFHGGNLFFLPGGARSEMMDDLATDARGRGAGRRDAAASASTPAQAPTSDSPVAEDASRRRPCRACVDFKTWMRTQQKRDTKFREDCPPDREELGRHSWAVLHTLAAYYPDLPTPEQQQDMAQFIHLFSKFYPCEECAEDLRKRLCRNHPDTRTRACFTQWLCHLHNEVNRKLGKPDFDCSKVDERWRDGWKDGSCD
T4 sequence (P11940 whole entry): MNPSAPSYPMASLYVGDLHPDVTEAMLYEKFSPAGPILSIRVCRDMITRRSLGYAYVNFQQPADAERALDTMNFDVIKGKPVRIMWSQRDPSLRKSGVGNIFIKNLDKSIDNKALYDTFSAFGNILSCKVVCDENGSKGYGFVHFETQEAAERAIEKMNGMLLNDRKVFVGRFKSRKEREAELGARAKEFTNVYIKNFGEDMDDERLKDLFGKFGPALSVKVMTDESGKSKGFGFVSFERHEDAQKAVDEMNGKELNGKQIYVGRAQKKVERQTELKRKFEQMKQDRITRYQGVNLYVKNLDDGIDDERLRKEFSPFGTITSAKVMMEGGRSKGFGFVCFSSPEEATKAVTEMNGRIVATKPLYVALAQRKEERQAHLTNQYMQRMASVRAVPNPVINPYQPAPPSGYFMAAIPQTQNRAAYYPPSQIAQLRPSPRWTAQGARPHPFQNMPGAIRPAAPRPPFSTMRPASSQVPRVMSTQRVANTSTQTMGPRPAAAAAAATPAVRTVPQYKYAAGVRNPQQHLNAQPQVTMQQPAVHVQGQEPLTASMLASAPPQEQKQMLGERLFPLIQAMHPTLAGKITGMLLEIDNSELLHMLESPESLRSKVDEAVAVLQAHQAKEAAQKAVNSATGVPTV
Sequence of Cytochrome P450 2D6 (P10635 whole entry): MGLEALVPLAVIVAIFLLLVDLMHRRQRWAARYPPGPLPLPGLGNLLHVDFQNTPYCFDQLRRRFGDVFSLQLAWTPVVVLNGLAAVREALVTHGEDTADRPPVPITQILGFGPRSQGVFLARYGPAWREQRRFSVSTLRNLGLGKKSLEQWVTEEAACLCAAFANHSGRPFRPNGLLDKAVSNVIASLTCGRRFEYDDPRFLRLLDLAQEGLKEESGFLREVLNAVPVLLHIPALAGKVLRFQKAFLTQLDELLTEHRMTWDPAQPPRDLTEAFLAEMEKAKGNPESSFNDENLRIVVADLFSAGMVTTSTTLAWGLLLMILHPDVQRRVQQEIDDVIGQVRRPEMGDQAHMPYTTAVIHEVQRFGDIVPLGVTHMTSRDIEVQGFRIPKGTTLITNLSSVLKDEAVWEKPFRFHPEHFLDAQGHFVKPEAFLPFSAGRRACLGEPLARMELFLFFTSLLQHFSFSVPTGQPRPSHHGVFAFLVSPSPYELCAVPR
Sequence of Cytochrome P450 2C19 (P33261 whole entry): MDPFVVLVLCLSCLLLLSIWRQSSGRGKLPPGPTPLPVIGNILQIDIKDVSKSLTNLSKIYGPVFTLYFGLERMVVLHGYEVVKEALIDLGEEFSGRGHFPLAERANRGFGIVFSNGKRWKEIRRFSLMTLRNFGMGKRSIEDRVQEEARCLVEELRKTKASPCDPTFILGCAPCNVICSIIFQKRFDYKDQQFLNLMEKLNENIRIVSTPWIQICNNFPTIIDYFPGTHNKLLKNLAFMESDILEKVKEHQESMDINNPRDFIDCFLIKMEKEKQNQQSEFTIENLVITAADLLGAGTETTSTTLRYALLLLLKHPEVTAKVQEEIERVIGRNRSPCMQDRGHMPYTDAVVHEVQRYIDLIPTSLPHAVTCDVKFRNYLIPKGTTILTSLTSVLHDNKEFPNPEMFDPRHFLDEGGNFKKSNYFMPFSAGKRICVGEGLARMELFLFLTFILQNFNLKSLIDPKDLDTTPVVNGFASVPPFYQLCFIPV
Sequence of Large T antigen (P03070 whole entry): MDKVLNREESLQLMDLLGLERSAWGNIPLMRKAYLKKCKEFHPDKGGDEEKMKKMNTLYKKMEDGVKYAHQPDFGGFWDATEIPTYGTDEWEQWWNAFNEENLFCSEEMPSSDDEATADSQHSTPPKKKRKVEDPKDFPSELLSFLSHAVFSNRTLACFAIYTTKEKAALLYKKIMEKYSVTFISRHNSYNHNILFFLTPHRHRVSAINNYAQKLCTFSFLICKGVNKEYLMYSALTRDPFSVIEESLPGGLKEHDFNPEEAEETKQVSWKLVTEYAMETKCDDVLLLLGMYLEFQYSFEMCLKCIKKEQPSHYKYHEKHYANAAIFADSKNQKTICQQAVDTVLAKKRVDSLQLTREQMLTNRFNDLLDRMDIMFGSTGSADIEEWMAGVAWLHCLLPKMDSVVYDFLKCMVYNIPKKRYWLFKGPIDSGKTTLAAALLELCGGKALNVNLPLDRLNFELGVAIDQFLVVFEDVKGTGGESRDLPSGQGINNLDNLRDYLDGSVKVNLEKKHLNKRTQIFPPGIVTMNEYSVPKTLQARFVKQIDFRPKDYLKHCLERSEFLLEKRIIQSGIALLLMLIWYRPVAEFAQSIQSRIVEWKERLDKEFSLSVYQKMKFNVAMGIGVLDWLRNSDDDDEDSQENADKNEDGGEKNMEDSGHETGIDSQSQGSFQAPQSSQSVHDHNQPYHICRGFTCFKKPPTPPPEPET

IC50 (Leucine aminopeptidase): 7.2 µM (active)
Structure (SMILES): Nc1nc(SCc2nc(-c3ccccc3)no2)[nH]c(=O)c1-c1ccccc1

Structure (SMILES): COc1ccc(/C=N/NC(=O)CCCOc2ccc(Cl)cc2Cl)cc1[N+](=O)[O-]
EC50 [1]: 281 µM (active)
AC50 (Cytochrome P450 2D6): 10 µM (inconclusive)
EC50 [2]: 59.7 µM (active)

Structure (SMILES): COc1ccc2c(c1)O[C@H](c1ccc3c(c1)OCO3)[C@@H](OC(=O)N[C@H](C)C1CCCCC1)C2=O
EC50 [1]: 11.6 µM (active)
EC50 [2]: 10.4 µM (active)

AC50 [3]: 3.92 µM (active)
IC50 (Large T antigen): > 100 µM (active)
Structure (SMILES): CS(=O)(=O)N1CCc2cc(C(=O)Nc3ccc(O)cc3)ccc21

AC50 (Cytochrome P450 2C19): 25.1 µM (inconclusive)
IC50 (Leucine aminopeptidase): 15.7 µM (active)
Structure (SMILES): Cn1c(C(=O)O)c(CC(=O)NCC2COc3ccccc3O2)c2ccccc21 (stereo not given)

AC50 [3]: 3.28 µM (active)
Structure (SMILES): CCN(CC)CCC(c1ccc(N(C)C)cc1)c1c(OC)cc(OC)c2ccc(=O)oc12 (stereo not given)

Structure (SMILES): NC(=O)c1nsc(C(=O)N(Cc2ccco2)C(C(=O)NCc2ccccc2)c2ccc(O)cc2)c1N (stereo not given)
IC50 (H9c2): > 79 µM (inactive)

Structure (SMILES): CC(=O)Nc1ccc(NS(=O)(=O)c2cc(-c3nnc(O)c4ccccc34)ccc2C)cc1
IC50 (H9c2): > 79 µM (inactive)

AC50 [3]: 6.23 µM (active)
Structure (SMILES): Cc1ccc(NC(=O)Nc2cccs2)cc1

Structure (SMILES): NS(=O)(=O)c1ccc(CCNc2ccn3nc(-c4ccc(OCCN5CCOCC5)cc4)cc3n2)cc1
IC50 (H9c2): > 79 µM (inactive)

Structure (SMILES): CCOC(=O)c1nc(Nc2ccc(C(C)=O)cc2)c2ccccc2n1
IC50 (H9c2): 8.56 µM (active)

Structure (SMILES): Cc1ccsc1/C=N/NC(=O)c1cccc(S(=O)(=O)Nc2ccccc2Cl)c1
IC50 [4]: > 80 µM (inactive)

Structure (SMILES): COc1ccc(/C=C/C(=O)c2ccc(NC(=O)c3cccs3)cc2)cc1OC
EC50 [1]: 3.5 µM (active)
EC50 [2]: 3.01 µM (active)

IC50 [4]: > 80 µM (inactive)
Structure (SMILES): O=C(Nc1nnc(S(=O)(=O)N2CCOCC2)s1)c1cccc(Br)c1

Structure (SMILES): COc1ccc(-c2cc(=O)c3ccccc3[nH]2)cc1
IC50 (H9c2): > 79 µM (inactive)

Structure (SMILES): Nc1nonc1-c1nc2ccccc2n1CC(=O)N/N=C/c1ccc(-c2cccc(C(=O)O)c2)o1
EC50 [5]: 4.28 µM (active)
EC50 (Streptococcus): 4.63 µM (active)
IC50 (Aminopeptidase N): 12.5 µM (active)

Structure (SMILES): Oc1c(Br)cc(Cl)cc1/C=N/c1ccccc1Br
IC50 (H9c2): > 79 µM (inactive)

AC50 [3]: 1.44 µM (active)
Structure (SMILES): CC(C)n1cnc2cc(NCc3ccccc3O)ccc21

IC50 (Leucine aminopeptidase): 27.7 µM (active)
EC50 [6]: > 195 µM (not active)
Structure (SMILES): CCOC(=O)Cc1csc(NC(=O)NC2(C(F)(F)F)Oc3cc(Cl)c(Cl)cc3O2)n1

Structure (SMILES): COc1ccc(C(=O)Nc2sc3c(c2C(=O)O)CC(C)(C)OC3)cc1
IC50 [4]: > 80 µM (inactive)

Structure (SMILES): CC(OC(=O)CCc1nc(O)c2ccccc2n1)C(=O)NCc1ccc2c(c1)OCO2 (stereo not given)
IC50 (H9c2): > 79 µM (inactive)

Structure (SMILES): Cn1c(=O)c2c(nc(N/N=C/c3ccc(OC(=O)c4ccco4)cc3)n2Cc2ccccc2Cl)n(C)c1=O
EC50 [1]: 13.4 µM (active)
EC50 [2]: 14.6 µM (active)

Structure (SMILES): CCOC(=O)c1c(C)[nH]c(C)c1C(=O)COc1ncnc2cc([N+](=O)[O-])ccc12
EC50 [7]: > 260 µM (inactive)
IC50 (H9c2): 26.4 µM (active)

IC50 (Leucine aminopeptidase): 31.4 µM (active)
Structure (SMILES): CC1SC(C)C(=O)N(CC(=O)NCc2ccc(F)cc2)C1=O (stereo not given)

IC50 (Leucine aminopeptidase): 13.2 µM (active)
Structure (SMILES): Cc1ccc(C(=O)Nc2ccc(Oc3ccc(C(=O)O)c(C(=O)O)c3)cc2)cc1C

AC50 [3]: 0.33 µM (active)
Structure (SMILES): CCCS(=O)(=O)N1CCCC(C(=O)NCCN(CC)c2ccccc2)C1 (stereo not given)

AC50 [3]: 7.27 µM (active)
Structure (SMILES): C=CCn1c(S)nnc1-c1cccc(OC)c1

IC50 (Leucine aminopeptidase): 3.8 µM (active)
IC50 [8]: > 66 µM (inactive)
IC50 [9]: > 66 µM (inactive)
Structure (SMILES): CC(Sc1ccc2c(c1)OCCO2)C(=O)Nc1ncc(Cl)cc1Cl (stereo not given)

Structure (SMILES): COc1ccc(N2C(=O)/C(=C/c3cccs3)NC2=S)cc1
IC50 [4]: > 80 µM (inactive)

AC50 [3]: 5.04 µM (active)
Structure (SMILES): Cc1ccc([N+](=O)[O-])cc1/N=N/c1c(C)[nH]n(C(N)=S)c1=O

AC50 [3]: 0.867 µM (active)
Structure (SMILES): COc1cc(SC)ccc1C(=O)Nc1c(Cl)cncc1Cl

IC50 (Leucine aminopeptidase): 6.63 µM (active)
Structure (SMILES): Cc1csc(SC(C)C(=O)Nc2ccc(Cl)cn2)n1 (stereo not given)
